Data from ChEMBL document CHEMBL1201862, “PubChem BioAssay data set” (2004).
The source made the active and inactive calls.

Columns and labels:
[1] = Luminescence Cell-Based Dose Response HTS to Identify Activators of Luciferase Translation or Activity in H4 […] Cells. [Related pubchem assays: 1829 (Project Summary), 1814 (Primary HTS)]; type: functional
[2] = target: FAD-linked sulfhydryl oxidase ALR (Homo sapiens, UniProt P55789); assay: ALR-catalysed DTT oxidation blockers – biochemical, H2O2 detection, luminescence, cherry-pick, dose response (AID 493248)
FAD-linked sulfhydryl oxidase ALR, sequence (P55789 whole entry): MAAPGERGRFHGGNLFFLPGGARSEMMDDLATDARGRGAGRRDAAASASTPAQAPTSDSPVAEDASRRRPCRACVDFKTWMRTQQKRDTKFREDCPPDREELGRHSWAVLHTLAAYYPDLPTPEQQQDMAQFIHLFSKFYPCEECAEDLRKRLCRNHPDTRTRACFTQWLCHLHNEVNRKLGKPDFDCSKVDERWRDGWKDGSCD

[3] = target: T1, Calpain-2 catalytic subunit (Sus scrofa, UniProt P43367); assay: m-calpain protease blockers, concentration series – biochemical, fluorogenic peptide substrate, dose response (AID 1420); type: functional
T1 sequence (P43367 whole entry): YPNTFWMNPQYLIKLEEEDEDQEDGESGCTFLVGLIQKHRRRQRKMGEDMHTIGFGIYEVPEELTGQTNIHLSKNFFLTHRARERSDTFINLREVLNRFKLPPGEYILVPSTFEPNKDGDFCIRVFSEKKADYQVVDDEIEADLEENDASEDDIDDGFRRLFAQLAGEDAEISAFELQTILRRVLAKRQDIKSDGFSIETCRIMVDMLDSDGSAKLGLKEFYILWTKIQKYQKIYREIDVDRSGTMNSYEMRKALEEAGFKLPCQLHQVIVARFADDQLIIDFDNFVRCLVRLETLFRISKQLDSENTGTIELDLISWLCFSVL

[4] = microbe, parasite or virus in culture; type: functional; details: Mycobacterium tuberculosis
Genome polyprotein = Genome polyprotein (dengue virus type 2, UniProt P29990); assay: flavivirus cap methylation enzyme inhibition – biochemical, confirmation dose response, primary screen (AID 588689); type: functional
Genome polyprotein, sequence (P29990 2492-3391 limits assumed): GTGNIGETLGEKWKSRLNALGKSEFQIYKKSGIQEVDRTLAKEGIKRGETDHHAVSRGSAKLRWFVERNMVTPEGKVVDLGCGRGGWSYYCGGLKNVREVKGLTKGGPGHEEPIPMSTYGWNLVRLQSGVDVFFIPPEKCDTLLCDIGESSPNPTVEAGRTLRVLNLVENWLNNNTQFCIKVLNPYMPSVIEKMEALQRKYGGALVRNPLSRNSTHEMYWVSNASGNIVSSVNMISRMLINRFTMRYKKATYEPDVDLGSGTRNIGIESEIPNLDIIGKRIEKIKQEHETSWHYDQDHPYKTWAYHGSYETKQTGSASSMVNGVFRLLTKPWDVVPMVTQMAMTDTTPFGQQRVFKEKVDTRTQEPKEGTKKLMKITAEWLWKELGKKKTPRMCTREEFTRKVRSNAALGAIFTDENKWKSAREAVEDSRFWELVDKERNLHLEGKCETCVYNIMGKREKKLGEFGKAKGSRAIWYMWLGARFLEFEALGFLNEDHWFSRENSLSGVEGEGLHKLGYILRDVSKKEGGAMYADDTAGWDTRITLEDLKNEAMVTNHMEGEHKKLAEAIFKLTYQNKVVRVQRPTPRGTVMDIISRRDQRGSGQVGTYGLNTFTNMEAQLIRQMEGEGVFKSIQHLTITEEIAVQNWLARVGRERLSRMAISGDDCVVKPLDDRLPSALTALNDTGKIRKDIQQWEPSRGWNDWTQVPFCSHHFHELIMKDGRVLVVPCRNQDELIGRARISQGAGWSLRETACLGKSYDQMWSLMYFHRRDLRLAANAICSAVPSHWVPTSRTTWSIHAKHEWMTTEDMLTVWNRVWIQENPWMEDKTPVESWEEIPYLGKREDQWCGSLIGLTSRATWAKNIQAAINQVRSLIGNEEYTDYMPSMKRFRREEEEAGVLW

Large T antigen = Large T antigen (Simian virus 40, UniProt P03070); type: functional, Betapolyomavirus macacae;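 further: Confirmatory-stage PubChem screen for compounds that inhibit SV40 T antigen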
Large T antigen, sequence (P03070 whole entry): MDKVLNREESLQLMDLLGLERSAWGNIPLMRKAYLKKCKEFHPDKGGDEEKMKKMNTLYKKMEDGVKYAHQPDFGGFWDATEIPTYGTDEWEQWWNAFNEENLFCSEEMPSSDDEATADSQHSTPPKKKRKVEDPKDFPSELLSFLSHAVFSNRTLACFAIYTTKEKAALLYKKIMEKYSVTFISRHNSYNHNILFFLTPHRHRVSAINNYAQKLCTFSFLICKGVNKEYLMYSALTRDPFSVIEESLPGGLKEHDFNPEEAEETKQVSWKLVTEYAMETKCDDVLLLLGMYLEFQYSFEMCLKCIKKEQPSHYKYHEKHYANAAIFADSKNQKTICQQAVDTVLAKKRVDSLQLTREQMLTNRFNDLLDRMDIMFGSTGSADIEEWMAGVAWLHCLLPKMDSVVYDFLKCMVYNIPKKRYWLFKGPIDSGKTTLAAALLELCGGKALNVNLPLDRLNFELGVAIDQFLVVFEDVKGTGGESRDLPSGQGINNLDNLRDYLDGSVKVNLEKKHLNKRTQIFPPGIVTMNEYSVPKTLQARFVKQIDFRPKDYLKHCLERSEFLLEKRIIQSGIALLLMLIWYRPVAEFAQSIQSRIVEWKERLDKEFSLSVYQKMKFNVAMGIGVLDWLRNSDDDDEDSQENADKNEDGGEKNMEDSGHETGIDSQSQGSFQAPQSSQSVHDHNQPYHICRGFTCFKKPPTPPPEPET

[5] = target: T2, Rac GTPase-activating protein 1 (Homo sapiens, UniProt Q9H0H5); assay: blockers of MgcRacGAP-driven Rac1 GTP hydrolysis – biochemical, ADP Hunter fluorescence, primary and confirmatory, confirmation (AID 624330); type: functional
T2 sequence (Q9H0H5 whole entry): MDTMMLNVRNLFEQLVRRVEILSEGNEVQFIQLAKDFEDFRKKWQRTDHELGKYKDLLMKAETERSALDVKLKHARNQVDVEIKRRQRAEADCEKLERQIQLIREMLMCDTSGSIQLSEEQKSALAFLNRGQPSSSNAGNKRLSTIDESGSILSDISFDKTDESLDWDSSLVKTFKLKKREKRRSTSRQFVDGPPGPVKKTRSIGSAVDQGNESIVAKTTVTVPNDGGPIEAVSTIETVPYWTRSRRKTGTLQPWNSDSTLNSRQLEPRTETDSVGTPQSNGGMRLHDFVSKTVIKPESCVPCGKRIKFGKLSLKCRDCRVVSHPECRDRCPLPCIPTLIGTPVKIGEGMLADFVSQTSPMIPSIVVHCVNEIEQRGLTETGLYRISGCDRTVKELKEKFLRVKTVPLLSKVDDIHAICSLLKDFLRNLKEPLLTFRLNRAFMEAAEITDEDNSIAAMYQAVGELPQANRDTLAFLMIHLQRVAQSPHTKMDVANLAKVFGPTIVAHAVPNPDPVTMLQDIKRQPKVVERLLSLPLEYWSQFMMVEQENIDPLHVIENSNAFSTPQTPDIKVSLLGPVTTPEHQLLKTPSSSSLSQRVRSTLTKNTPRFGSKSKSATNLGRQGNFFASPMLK

[6] = luciferase reporter signal suppression in cells – H4 neuroglioma cells, luminescence, dose response (AID 1990); type: functional, cell-based
BJ [7] = assay: BJ-TERT fibroblast viability loss – cell-based, RAS-independent, luminescence, dose response (AID 1933); type: functional; details: Homo sapiens
[8] = Luminescence Cell-Based Dose Response HTS to Identify Inhibitors of 5'UTR Stem-Loop Driven Prion Protein mRNA Translation in H4 Neuroglioblastoma Cells. [Related pubchem assays: 1827 (Project Summary), 1813 (Primary HTS)]; type: functional
[9] = alpha-synuclein stem-loop luciferase translation blockers – H4 neuroglioma cells, luminescence, confirmation (AID 1988); type: functional, cell-based
BJ [10] = assay: cells; type: functional, cell-based; details: Homo sapiens
BJ [11] = assay: BJ-TERT-LT-ST fibroblast viability loss – cell-based, RAS-independent, luminescence, dose response (AID 1935); type: functional; details: Homo sapiens;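 further: BJ fibroblasts immortalized with TERT plus LT and ST oncogenes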
[12] = DRD fibroblast viability loss – cell-based, non-viral oncogenic, luminescence, dose response (AID 1934); type: functional; details: Homo sapiens
[13] = target: T3, Heat shock factor protein 1 (Mus musculus, UniProt P38532); assay: decrease of HSF1-responsive luciferase luminescence – cell-based, NIH3T3, dose retest, confirmation (AID 2382); type: functional;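 further: NIH3T3 fibroblasts with HSF1-driven luciferase reporter stressed by proteasome inhibitor MG132; luminescence from HSF1-driven luciferase expression after 8 hours of MG132 stress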
T3 sequence (P38532 whole entry): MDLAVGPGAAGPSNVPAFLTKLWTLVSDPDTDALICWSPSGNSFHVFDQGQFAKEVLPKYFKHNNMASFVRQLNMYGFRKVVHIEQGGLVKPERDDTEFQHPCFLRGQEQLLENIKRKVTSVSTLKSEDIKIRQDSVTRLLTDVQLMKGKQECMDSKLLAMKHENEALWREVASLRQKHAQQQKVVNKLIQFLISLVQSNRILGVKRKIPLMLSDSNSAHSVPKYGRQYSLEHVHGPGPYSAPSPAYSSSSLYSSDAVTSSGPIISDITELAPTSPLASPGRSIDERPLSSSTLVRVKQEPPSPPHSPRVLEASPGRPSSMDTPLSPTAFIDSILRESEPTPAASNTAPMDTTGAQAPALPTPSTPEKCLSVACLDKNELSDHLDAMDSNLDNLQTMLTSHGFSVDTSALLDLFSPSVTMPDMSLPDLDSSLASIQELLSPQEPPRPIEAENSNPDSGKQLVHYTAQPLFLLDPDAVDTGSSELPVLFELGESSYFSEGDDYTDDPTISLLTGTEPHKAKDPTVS

[14] = Trypanosoma cruzi growth suppression in host cells – NIH3T3 host cells, beta-gal luminescence, confirmation (AID 2044); type: functional, cell-based;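 further: intracellular parasites grown in NIH/3T3 mouse fibroblasts as host cells; luminescent beta-galactosidase reporter signal from transgenic T. cruzi replicating inside host cells; inhibitors lower the luminescence signal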
[15] = NIH3T3 cell viability loss – ATP luminescence, mouse fibroblasts, counter-screen, dose response (AID 2010); type: functional, cell-based;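 further: cells exposed to compound for about 90 hours before reading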
[16] = target: Luciferin 4-monooxygenase (Photinus pyralis, UniProt P08659); assay: inhibition of purified Photinus pyralis luciferase – biochemical, luminescence, dose response (AID 1891)
Luciferin 4-monooxygenase, sequence (P08659 whole entry): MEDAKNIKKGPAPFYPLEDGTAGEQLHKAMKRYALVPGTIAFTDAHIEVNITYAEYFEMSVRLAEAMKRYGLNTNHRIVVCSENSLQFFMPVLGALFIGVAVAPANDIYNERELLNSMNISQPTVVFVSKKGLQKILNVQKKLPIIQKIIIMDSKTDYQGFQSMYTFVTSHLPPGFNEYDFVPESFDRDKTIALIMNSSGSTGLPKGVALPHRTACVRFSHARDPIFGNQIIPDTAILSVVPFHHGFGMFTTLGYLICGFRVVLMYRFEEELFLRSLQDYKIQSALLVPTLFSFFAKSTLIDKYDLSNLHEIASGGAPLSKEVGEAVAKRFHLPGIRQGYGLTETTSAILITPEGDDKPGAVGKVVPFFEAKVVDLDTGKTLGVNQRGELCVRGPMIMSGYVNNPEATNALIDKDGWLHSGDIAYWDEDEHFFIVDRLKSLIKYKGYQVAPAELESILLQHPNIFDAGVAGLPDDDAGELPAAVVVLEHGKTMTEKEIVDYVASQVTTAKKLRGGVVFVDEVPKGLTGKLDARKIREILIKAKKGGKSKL

[17] = Luminescence Cell-Based Dose Confirmation HTS to Identify Inhibitors of Platelet Dense Granule Release. [Related pubchem assays: 1663 (Primary HTS), 1678 (Summary of Project)]; type: functional
Cytochrome P450 2C9 = Cytochrome P450 2C9 (Homo sapiens, UniProt P11712)
Cytochrome P450 2C9, sequence (P11712 whole entry): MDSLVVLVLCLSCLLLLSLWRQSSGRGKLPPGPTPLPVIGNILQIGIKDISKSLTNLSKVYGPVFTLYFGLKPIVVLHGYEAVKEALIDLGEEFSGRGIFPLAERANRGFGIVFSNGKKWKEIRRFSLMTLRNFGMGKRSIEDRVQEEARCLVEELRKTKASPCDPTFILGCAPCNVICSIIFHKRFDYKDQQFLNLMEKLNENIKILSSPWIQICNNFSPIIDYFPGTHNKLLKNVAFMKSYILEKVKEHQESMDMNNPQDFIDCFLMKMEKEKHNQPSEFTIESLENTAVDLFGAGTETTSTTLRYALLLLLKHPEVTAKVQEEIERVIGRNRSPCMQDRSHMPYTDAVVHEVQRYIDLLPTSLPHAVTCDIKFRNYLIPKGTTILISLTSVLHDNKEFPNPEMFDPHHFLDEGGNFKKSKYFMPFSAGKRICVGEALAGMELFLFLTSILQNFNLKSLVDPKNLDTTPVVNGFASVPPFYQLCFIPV

[18] = viability of uninfected HEp-2 cells – cell-based, HTS, cytotoxicity control for RSV inhibitor project, dose response (AID 2410); type: functional; details: human respiratory syncytial virus
INS1 = assay: INS-1E survival protection against cytokine death – cell-based, luminescence, retest, dose response (AID 449756); type: functional; details: Rattus norvegicus;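 further: cell death triggered by IL-1 beta plus TNF-alpha plus IFN-gamma mixture; protective hits raise ATP signal compared with cytokine alone wells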

In the case of `Cc1cc(N)n2ncc(-c3ccccc3)c2n1`, the EC50 [1] is reported as 0.137 µM (active) and the AC50 [2] is reported as 18.9 µM (active).
With `Cc1cc(NC(=O)c2ccc3c(c2)C(=O)N(CCC(C)C)C3=O)no1` the IC50 [3] was 17.2 µM (not active).
In the case of `COc1ccc(-c2csc3ncnc(N4CCN(c5ccccc5OC)CC4)c23)cc1`, the CC50 [4] is reported as > 40 µM (active).
For `COc1ccc(CC(=O)Nc2ccccc2N2CCCC2)cc1OC`, the AC50 [2] was 12.6 µM (active).
In the case of `CC(C)c1ccc(NC(=O)Cc2c(C(=O)O)n(C)c3ccccc23)cc1`, the AC50 [2] is reported as 6.73 µM (active).
With `COc1ccc2c(c1OC)C(=O)OC2c1c(O)n(Cc2ccc(F)cc2)c(=O)[nH]c1=O` (configuration not stated) the IC50 (Genome polyprotein) was 69.7 µM (active).
For `CCCN(C#N)c1nc(NCC)nc(NC(C)C)n1`, the IC50 [3] was > 50 µM (not active).
With `Cc1c(NC(=O)COC(=O)COc2ccc(Nc3ccccc3)cc2)c(=O)n(-c2ccccc2)n1C` the IC50 (Large T antigen) was 35.3 µM (active).
In the case of `Cc1ccc(C(C2=C(O)CC(C)(C)CC2=O)C2C(=O)CC(C)(C)CC2=O)s1` (configuration not stated), the IC50 (Genome polyprotein) is reported as 29.4 µM (active) and the IC50 [5] is reported as 62.9 µM (active).
For `COc1cc(OC)cc(C(=O)c2c(C)c(C#N)c3ccccn23)c1`, the EC50 [6] was 15 µM (active), the EC50 (BJ [7]) was 2.54 µM (active) and the EC50 [8] was > 120 µM (not active). The EC50 [9] was 2.6 µM (active), the EC50 (BJ [10]) was 0.769 µM (active) and the EC50 (BJ [11]) was 1.46 µM (inconclusive). For the same compound, the EC50 [12] was 1.49 µM (active).
With `CCOc1ccc(-c2cnc(NCc3cccc4ccccc34)n2CCOC)cc1` the EC50 [13] was > 195 µM (not active), the EC50 [14] was 0.979 µM (active) and the CC50 [4] was 12.2 µM (active). For the same compound, the EC50 [15] was > 60 µM (not active).
For `COc1ccc(CC(=O)N2CCN(c3ccc(C4=NNC(=O)CC4C)cc3)CC2)cc1` (configuration not stated), the EC50 [16] was > 112 µM (not active), the EC50 [17] was < 0.088 µM (active) and the AC50 [2] was 20.8 µM (active). The AC50 (Cytochrome P450 2C9) was 8.91 µM (inconclusive).
In the case of `Nc1c(C(=O)O)sc2nc(-c3ccccc3)cc(-c3ccc(Cl)cc3)c12`, the EC50 [13] is reported as > 195 µM (not active) and the IC50 (Genome polyprotein) is reported as 70.8 µM (active).
In the case of `Cc1cc([N+](=O)[O-])nn1CCCC(=O)Nc1cc(Oc2ccccc2)cc([N+](=O)[O-])c1`, the IC50 [3] is reported as 5.32 µM (not active).
With `C1CCCCC1.OCCN1CCN(C2Cc3cc(Cl)ccc3Sc3ccc(Cl)cc32)CC1` (configuration not stated) the CC50 [18] was 13.8 µM (active) and the AC50 (INS1) was 13 µM (active).
With `CC(O)CNc1nc2ccccc2n1-c1ncnc2sc3c(c12)CCC3` (configuration not stated) the CC50 [4] was 29.6 µM (active).
With `CCN(CCCNC(=O)CCn1c(=O)[nH]c2ccsc2c1=O)c1ccccc1` the EC50 [13] was > 195 µM (not active) and the IC50 [3] was < 0.4 µM (not active).
For `CC(=O)c1ccc(NC(=O)N2CCN(c3ccc(C)cc3)C(C)C2)cc1` (configuration not stated), the AC50 [2] was 3.56 µM (active).
With `CC1(C)CC(=O)C(C(C2=C(O)CC(C)(C)CC2=O)c2ccc(O)c([N+](=O)[O-])c2)=C(O)C1` the IC50 (Genome polyprotein) was 9.49 µM (active).
For `Cc1nc2ccc(S(=O)(=O)NCC(=O)N(C)Cc3ccccc3)cc2s1`, the AC50 [2] was 1.05 µM (active).
